Entries after “also recorded” stand apart in the source; their conditions may differ.
Key:
[1] = tested on: PPARg; assay: PPARg transactivation assay (GAL4-PPARg/GAL4-luc) in HEK-293 and NIH-3T3 cells; type: cell-based, human; settings: for PPARg transactivation (luciferase activity): treated 6 hours, compared with untreated cells
Method: The concentration of the tested compound (μM) is shown at the x-axis and the PPARg activation fold is shown at the y-axis. […]. Fold activation level was calculated, taking the control sample (−), without the presence of any PPARg agonist or activating agent, as reference. Data are expressed as mean±S.D. of at least three independent experiments.
To investigate the biological activities of the novel compounds we performed PPARg transactivation assays in HEK-293 cells and in NIH-3T3 fibroblasts cells.
HEK293T cells and human primary fibroblasts cells were maintained at 37° C. in a humidified atmosphere containing 5% CO2 in DMEM supplemented with 10% fetal calf serum (FBS), and 1% (v/v) penicillin/streptomycin. Rosiglitazone was purchased from Cayman Chemical Company (Ann Arbor, Mich., USA). All other reagents were from Sigma Co (St Louis, Mo., USA). HEK293T cells (2×10^3/well) (FIGS. 1A, 1B and 1C) or NIH-3T3 cells (5×10^3/well) (FIG. 2) were seeded in BD Falcon™ White with Clear Bottom 96-well Microtest™ Optilux™ Plate for 24 hours. Afterwards, cells were transiently co-transfected with the expression vector GAL4-PPARγ and the luciferase reporter vector GAL4-luc using Roti©-Fect (Carl Roth, Karlsruhe, Germany) following the manufacturer's instructions. Twenty-four h post-transfection, cells were pretreated with increasing doses of the compounds for 6 hours. Then, the cells were lysed in 25 mM Tris-phosphate pH 7.8, 8 mM MgCl2, 1 mM DTT, 1% Triton X-100, and 7% glycerol. Luciferase activity was measured in the cell lysate using a TriStar LB 941 multimode microplate reader (Berthold) and following the instructions of the Luciferase Assay Kit (Promega, Madison, Wis., USA). Protein concentration was measured by the Bradford assay (Bio-Rad, Richmond, Calif., USA). The background obtained with the lysis buffer was subtracted in each experimental value and the specific transactivation expressed as a fold induction over untreated cells. All the experiments were repeated at least three times. The plasmids used were Gal4-hPPARgamma (plasmid name: pCMV-BD-hPPARg, Sinal Laboratory, Dept. of Pharmacology, Dalhousie University) and Gal4 luc reporter plasmid that includes five Gal4 DNA binding sites fused to the luciferase gene. […]. Data are given as means with deviation standard error bars of three replicates. […].

[2] = tested on: human COL1A2 promoter; assay: TGFb-induced collagen type I gene transcription (COL1A2-Luc) in NIH-3T3 fibroblasts; type: cell-based; settings: 30 min pre-incubation, TGFb 50 ng/ml 6 h
Method: To investigate the potential anti-fibrotic activity of CBD-derivatives NIH-3T3 fibroblast cells were transiently transfected with the plasmid COL1A2-Luc plasmid by using Roti©-Fect according to the manufacturer instructions. The COL1A2-luciferase construct contains sequences from −353 to +58 bp of the human COL1A2 promoter fused to the luciferase reporter gene (pGL2 basic, Promega, Madison, Wis.). […] Protein lysates were prepared and analyzed for luciferase activity. The concentration of the tested compound (μM) is shown at the x-axis and the percentage of COL1A2 activation is shown at the y-axis considering 100% activation the effect of TGFb in the absence of the compounds. Data are expressed as mean±SD of at least three independent experiments.
Cultured NIH-3T3 fibroblast cells were transiently transfected with the plasmid COL1A2-Luc plasmid that contains sequences from −353 to +58 bp of the human COL1A2 promoter fused to the luciferase reporter gene. Twenty-four hour later the cells were incubated with compounds III, V, VIII and X (as examples) for 30 min and treated with TGFb (50 ng/ml) for 6 h. Protein lysates were prepared and analyzed for luciferase activity.

[3] = tested on: Jurkat cells; assay: Mitochondrial membrane potential (MitoTracker Red CMXR, flow cytometry); type: cell-based; settings: 2 hours, increasing concentrations
[4] = tested on: NIH-3T3 cells; assay: TGFb-induced collagen production, Sirius Red-Fast Green method; type: cell-based; settings: 1 hour pre-incubation, TGFb 50 ng/ml 24 hours
Method: The production of collagen was carried out using the Sirius Red-Fast Green method, designed to quantify the amount of collagen and non-collagen proteins in cell pellets. The collagen production was determined at 540 nm and 605 nm in a Genesis 10 UV scanning spectrofluorometer (Thermo Fisher Scientific). To calculate the amounts of collagen, first, we corrected the OD 540 value by subtracting the contribution by Fast Green, which interfere in the absorbance at 540 nm. Fast Green contributes 29.1% of the OD 540 value. The Color equivalence is 37.8 for collagen and 2.04 for non-collagen proteins at OD 540 and […], respectively. Collagen(pg/100 μl cell pellet)={[OD 540−(OD 605×0.291)]/37.8×1000}×10^6.
The experiments were repeated three times, and the results were expressed as a fold induction over untreated cells.
The production of collagen was carried out using the Sirius Red-Fast Green method, designed to quantify the amount of collagen and non-collagen proteins in cell pellets. NIH-3T3 cells were seeded at a density of 5×10^4/well in 24 well plates and they were incubated overnight at 37° C. to allow cell attachment. Next, cells were pre-incubated 1 hour with the indicated concentrations of compounds III, V, VIII and X and TGFb (50 ng/ml) during 24 hours. After the treatment, the cell pellets were extracted overnight at 4° C. with 100 μl of 0.5M acetic acid. Then, 1 ml of the dye solution (0.1% Sirius Red and 0.1% Fast Green dissolved in saturated picric acid) was added to the cell pellets and mixed gently at room temperature for 30 minutes. Next, samples were centrifuged at 10,000 g for 5 minutes to pellet the collagen. The supernatants were carefully removed without disturbing the pellet and 1 ml of 0.1 M hydrochloric acid was added to each tube to remove unbound dye. Samples were centrifuged at 10,000 g for 5 minutes and 1 ml of 0.5 M sodium hydroxide was added to each tube and vortex vigorously to release the bound dye. Samples were centrifuged at 2500 g for 5 minutes to re-pellet any cell debris.
The collagen production was determined and the results were expressed as a fold induction over untreated cells.

[5] = tested on: Jurkat cells; assay: ROS generation (H2DCF-DA, flow cytometry); settings: 6 hours, increasing concentrations
[6] = tested on: PPARg; assay: Inhibition of Rosiglitazone-induced PPARg activation in HEK-293 cells; type: cell-based, human; settings: pretreated 30 min, then RSZ 1 μM for 6 hours
Method: (A) HEK-293 cells were co-transfected with GAL4-PPARg and GAL4-luc. […] Protein lysates were prepared and analyzed for luciferase activity. The concentration of the tested compound (μM) is shown at the x-axis and the PPARg activation fold is shown at the y-axis.
(A) HEK293T cells were maintained at 37° C. in a humidified atmosphere containing 5% CO2 in DMEM supplemented with 10% fetal calf serum (FBS), and 1% (v/v) penicillin/streptomycin. Rosiglitazone was purchased from Cayman Chemical Company (Ann Arbor, Mich., USA). HEK293T cells (2×10^3/well) (FIG. 3A) were seeded in BD Falcon™ White with Clear Bottom 96-well Microtest™ Optilux™ Plate for 24 hours. Afterwards, cells were transiently co-transfected with the expression vector GAL4-PPARγ and the luciferase reporter vector GAL4-luc using Roti©-Fect (Carl Roth, Karlsruhe, Germany) following the manufacturer's instructions. Twenty-four h post-transfection, cells were pretreated with increasing doses of the compounds for 30 min and then stimulated with RSZ (1 μM) for 6 hours.

Row | SMILES | PPARg transactivation (luciferase activity) [1] | TGFb-induced collagen type I gene transcription [2] | mitochondrial membrane potential [3] | TGFb-induced collagen production [4] | intracellular ROS levels [5] | RSZ-induced PPARg transactivation [6] | increase of PPARg activity (fold induction) ([1]; 1 μM concentration)
1 | C=C(C)[C@@H]1CCC(C)=C[C@H]1C1=C(O)C(=O)C(CCCCC)=C(NCC)C1=O [Compound II, (1′R,6′R)-3-(Ethylamine)-6-hydroxy-3′-methyl-4-pentyl-6′-(prop-1-en-2-yl)-[1,1′-bi(cyclohexane)]-2′,3,6-triene-2,5-dione] | the most active compounds |  |  |  |  |  | 
2 | C=C(C)[C@@H]1CCC(C)=C[C@H]1C1=C(O)C(=O)C(CCCCC)=C(NCCCCC)C1=O [Compound III, (1′R,6′R)-3-(Pentylamine)-6-Hydroxy-3′-methyl-4-pentyl-6′-(prop-1-en-2-yl)-[1,1′-bi(cyclohexane)]-2′,3,6-triene-2,5-dione] | the most active compounds | clearly inhibited | did not induce a loss | clearly inhibited | not reactive; also recorded: unable to induce ROS accumulation significantly | decrease | 
3 | C=C(C)[C@@H]1CCC(C)=C[C@H]1C1=C(O)C(=O)C(CCCCC)=C(NCC(C)C)C1=O [Compound IV, (1′R,6′R)-3-(Isobutylamine)-6-Hydroxy-3′-methyl-4-pentyl-6′-(prop-1-en-2-yl)-[1,1′-bi(cyclohexane)]-2′,3,6-triene-2,5-dione] | the most active compounds |  |  |  |  |  | 
4 | C=C(C)[C@@H]1CCC(C)=C[C@H]1C1=C(O)C(=O)C(CCCCC)=C(NCCCC)C1=O [Compound V, (1′R,6′R)-3-(Butylamine)-6-hydroxy-3′-methyl-4-pentyl-6′-(prop-1-en-2-yl)-[1,1′-bi(cyclohexane)]-2′,3,6-triene-2,5-dione] | the most active compounds | clearly inhibited | did not induce a loss | clearly inhibited | not reactive; also recorded: unable to induce ROS accumulation significantly | decrease | 
5 | C=C(C)[C@@H]1CCC(C)=C[C@H]1C1=C(O)C(=O)C(CCCCC)=C(NC(C)C)C1=O [Compound VII, (1′R,6′R)-3-(Isopropylamine)-6-Hydroxy-3′-methyl-4-pentyl-6′-(prop-1-en-2-yl)-[1,1′-bi(cyclohexane)]-2′,3,6-triene-2,5-dione] | the most active compounds |  | did not induce a loss |  | not reactive |  | 
6 | C=C(C)[C@@H]1CCC(C)=C[C@H]1C1=C(O)C(=O)C(CCCCC)=C(NCc2ccccc2)C1=O [Compound VIII, (1′R,6′R)-3-(Benzylamine)-6-hydroxy-3′-methyl-4-pentyl-6′-(prop-1-en-2-yl)-[1,1′-bi(cyclohexane)]-2′,3,6-triene-2,5-dione] | the most active compounds | clearly inhibited |  | clearly inhibited |  | decrease | 
7 | C=C(C)[C@@H]1CCC(C)=C[C@H]1C1=C(O)C(=O)C(CCCCC)=C(NCCC(C)C)C1=O [Compound X, (1′R,6′R)-3-(Isopentylamine-6-Hydroxy)-3′-methyl-4-pentyl-6′-(prop-1-en-2-yl)-[1,1′-bi(cyclohexane)]-2′,3,6-triene-2,5-dione] |  | clearly inhibited | did not induce a loss | clearly inhibited | not reactive; also recorded: unable to induce ROS accumulation significantly | decrease | 
8 | C=C(C)[C@@H]1CCC(C)=C[C@H]1C1=C(O)C(=O)C(CCCCC)=C(C(=O)OC/C=C(\C)CCC=C(C)C)C1=O [Compound XIII, (E)-3,7-dimethylocta-2,6-dienyl-4-hydroxy-5-((1R,6R)-3-methyl-6-(prop-1-en-2-yl)cyclohex-2-enyl)-3,6-dioxo-2-pentylcyclohexa-1,4-dienecarboxylate] |  |  |  |  |  | decrease | 
9 | CN(CCOc1ccc(CC2SC(=O)NC2=O)cc1)c1ccccn1 (stereo not shown) [Rosiglitazone, reference compound] |  |  |  |  |  |  | more than 100 times
